Measured values: paper PMC12442081, “Combating Fuel Biocontamination: Tailored Antimicrobial Peptides and an Innovative Delivery Strategy” (ACS Applied Bio Materials, 2025)
Where no end group is shown, it is not given here.

Key:
[1] = test system: microbial clusters MY, KR, DN, MC, BL, RM, SP, PA, HR; experiment: Broad-spectrum activity score (in-house scoring matrix); details: sum over 9 microbial clusters: (+) = 1, (X) = 0, Fuel x = -1
Method: Table S4. Summarizing the broad-spectrum activity of the peptides, considering the MIC value/ efficacy to control microbial growth upon fuel co-incubation
Peptides Bacterial clusters Fungal
Actinobacteria Firmicutes Proteobacteria Asco- […]
Peptides identified based on the scoring matrix, where (+) =1 (implying peptide activity in fuel environment); (X) = 0 (implying no activity in the desired range, indicated by microbial proliferation); Fuel x = -1(implying no activity in fuel environment).
Clearly, P17 is the best performing peptide in vitro across diverse microbial phyla as well as when incubated in the fuel environment. Based on the activity of the selected peptides, the best

Roseomonas mucosa (RM) = experiment: Effectiveness of peptides on spiked fuel samples (aqueous layer); assay type: cell-based; design: key: (+) =1 (implying peptide activity in fuel environment); (X) = 0 (implying no activity in the desired range, indicated by microbial proliferation); Fuel x = -1(implying no activity in fuel environment); details: initial screening in spiked fuel
Method: (§1) To study the partitioning of microbes in fuel tanks, filter-sterilized fuel was mixed with BH medium in a 1:1 (v/v) ratio. The inoculum was added to the aqueous phase at the bottom to simulate growth in the aqueous layer of fuel tanks and incubated aerobically at 30 °C for 30 days. Visible growth was assessed, and aliquots from both the aqueous and fuel phases were plated on nutrient agar plates to evaluate microbial growth. Peptides were initially added to the aqueous layer of microbially spiked fuel samples for screening the effectiveness in the fuel environment. The study was further extended over a longer duration, and incubated under aerobic conditions at 30 °C for 30 days. Microbial growth was monitored at regular intervals by plating aliquots from the aqueous layer on the nutrient agar plates.
(§2) The engineered peptides were administered at their respective MICs to the aqueous layer of simulated fuel samples, and samples from both the aqueous and solvent (fuel) layers were removed at intervals of 7, 14, 21, and 30 days and plated on LBA plates to assess cell viability (Table S5).

[2] = test system: Bacillus licheniformis (BL); experiment: as above; assay type: cell-based; design: key: (+) =1 (implying peptide activity in fuel environment); (X) = 0 (implying no activity in the desired range, indicated by microbial proliferation); Fuel x = -1(implying no activity in fuel environment); details: initial screening in spiked fuel
Method: as §1, §2

[3] = test system: Dermacoccus nishinomiyaensis (DN); experiment: as above; assay type: cell-based; design: key: (+) =1 (implying peptide activity in fuel environment); (X) = 0 (implying no activity in the desired range, indicated by microbial proliferation); Fuel x = -1(implying no activity in fuel environment); details: initial screening in spiked fuel
Method: as §1, §2

Hormoconis resinae (HR) = experiment: as above; assay type: cell-based; design: key: (+) =1 (implying peptide activity in fuel environment); (X) = 0 (implying no activity in the desired range, indicated by microbial proliferation); Fuel x = -1(implying no activity in fuel environment); details: initial screening in spiked fuel
Method: as §1, §2

[4] = test system: Micrococcus yunnanensis (MY); experiment: as above; assay type: cell-based; design: key: (+) =1 (implying peptide activity in fuel environment); (X) = 0 (implying no activity in the desired range, indicated by microbial proliferation); Fuel x = -1(implying no activity in fuel environment); details: initial screening in spiked fuel
Method: as §1, §2

[5] = test system: Pseudomonas aeruginosa (PA); experiment: as above; assay type: cell-based; design: key: (+) =1 (implying peptide activity in fuel environment); (X) = 0 (implying no activity in the desired range, indicated by microbial proliferation); Fuel x = -1(implying no activity in fuel environment); details: initial screening in spiked fuel
Method: as §1, §2

[6] = test system: Macrococcus caseolyticus (MC); experiment: as above; assay type: cell-based; design: key: (+) =1 (implying peptide activity in fuel environment); (X) = 0 (implying no activity in the desired range, indicated by microbial proliferation); Fuel x = -1(implying no activity in fuel environment); details: initial screening in spiked fuel
Method: as §1, §2

Kocuria rosea (KR) = experiment: as above; assay type: cell-based; design: key: (+) =1 (implying peptide activity in fuel environment); (X) = 0 (implying no activity in the desired range, indicated by microbial proliferation); Fuel x = -1(implying no activity in fuel environment); details: initial screening in spiked fuel
Method: as §1, §2

[7] = test system: Sphingomonas paucimobilis (SP); experiment: as above; assay type: cell-based; design: key: (+) =1 (implying peptide activity in fuel environment); (X) = 0 (implying no activity in the desired range, indicated by microbial proliferation); Fuel x = -1(implying no activity in fuel environment); details: initial screening in spiked fuel
Method: as §1, §2

[8] = test system: Bacillus licheniformis (BL) ATCC 14580; assay type: cell-based; details: ATCC 14580
Method: (§3) All of the bacterial species were grown overnight at 37 °C in LB broth. 10^7 CFU/mL of cells were resuspended in fresh culture and grown until the mid log phase. , The bacterial cells were adjusted to a concentration of 5 × 10^5 CFU/mL to quantify the MIC. Equal volumes of the respective bacterial cultures were incubated with the serially diluted peptides in 96-well microtiter plate and incubated overnight at 37 °C in ambient air. Microorganisms without peptides were treated as the positive control, while uninoculated broth was used as the negative control. The MIC was taken as the lowest peptide concentration at which observable bacteria growth was inhibited, as measured by a microplate reader (Biotek Synergy H1 microplate reader). Experiments were performed in triplicates, and the mean MIC values were determined. A similar study was performed to understand the effect of peptide purity, i.e., ranging from 70 to 95%, on the peptide MIC.

[9] = test system: Kocuria rosea (KR) ATCC 186; assay type: cell-based
Method: as §3

[10] = test system: Sphingomonas paucimobilis (SP); assay type: cell-based
Method: as §3

[11] = HPLC retention time as a function of peptide hydrophobicity; assay type: physicochemical; details: chromatographic, Polaris 5 C18-A reverse phase, 0.1% TFA water / 0.1% TFA acetonitrile gradient, 30 min, 300 μM peptide
Method: The purity of the peptides was ascertained by high-performance liquid chromatography (HPLC) using Polaris 5 C18-A […] × 4.6 mm reverse phase Zorbax columns from Agilent Technologies. The buffer system contained 0.1% (v/v) TFA in 100% water and 0.1% (v/v) TFA in 100% acetonitrile. Each peptide sample contained 300 μM peptides dissolved in an acetonitrile–water (1:4) mixture. A constant gradient of the two solvent systems was used to generate the chromatogram for 30 min after sample injection.

[12] = test system: Micrococcus yunnanensis (MY) ATCC 12698; assay type: cell-based
Method: as §3

[13] = test system: Macrococcus caseolyticus (MC) ATCC 13548; assay type: cell-based
Method: as §3

[14] = test system: Dermacoccus nishinomiyaensis (DN) ATCC 29093; assay type: cell-based
Method: as §3

[15] = test system: Pseudomonas aeruginosa (PA) ATCC 39327; assay type: cell-based; details: ATCC 39327
Method: as §3

With `CC(C)C[C@H](NC(=O)[C@@H](N)Cc1ccc(O)cc1)C(=O)N1CCC[C@H]1C(=O)N[C@@H](Cc1c[nH]c2ccccc12)C(=O)N[C@@H](CCCCN)C(=O)N[C@@H](Cc1c[nH]c2ccccc12)C(=O)N1CCC[C@H]1C(=O)N[C@@H](Cc1c[nH]c2ccccc12)C(=O)N[C@@H](Cc1c[nH]c2ccccc12)C(=O)N1CCC[C@H]1C(=O)N[C@@H](Cc1c[nH]c2ccccc12)C(=O)N[C@@H](CCCNC(=N)N)C(=O)N[C@@H](CCCNC(=N)N)C(=O)O` [P14] the Score [1] was 1, the “activity considering MIC value/efficacy upon fuel co-incubation” value (Roseomonas mucosa (RM)) was “X” and the “activity considering MIC value/efficacy upon fuel co-incubation” value [2] was “+”. For the same molecule, the “activity considering MIC value/efficacy upon fuel co-incubation” value [3] was “X”, the “activity considering MIC value/efficacy upon fuel co-incubation” value (Hormoconis resinae (HR)) was “X” and the “activity considering MIC value/efficacy upon fuel co-incubation” value [4] was “X”. For the same molecule, the “activity considering MIC value/efficacy upon fuel co-incubation” value [5] was “X”, the “activity considering MIC value/efficacy upon fuel co-incubation” value [6] was “X” and the “activity considering MIC value/efficacy upon fuel co-incubation” value (Kocuria rosea (KR)) was “Fuel x”. The “activity considering MIC value/efficacy upon fuel co-incubation” value [7] was “+”, the MIC [8] was 3.9 µM and the MIC [9] was 0.9 µM. For the same molecule, the MIC [10] was 0.9 µM and the “R t, retention time of peptide on HPLC column as a function of peptide hydrophobicity” value (from here on “R t, retention time of peptide”) [11] was 12.279 min.

For `CC[C@H](C)[C@H](N)C(=O)N[C@@H](CC(C)C)C(=O)N[C@@H](Cc1ccccc1)C(=O)N[C@@H](Cc1c[nH]c2ccccc12)C(=O)N[C@@H](CCCCN)C(=O)N[C@@H](Cc1c[nH]c2ccccc12)C(=O)N1CCC[C@H]1C(=O)N[C@@H](Cc1c[nH]c2ccccc12)C(=O)N[C@@H](Cc1c[nH]c2ccccc12)C(=O)N1CCC[C@H]1C(=O)N[C@@H](Cc1c[nH]c2ccccc12)C(=O)N[C@@H](CCCNC(=N)N)C(=O)N[C@@H](CCCNC(=N)N)C(=O)O` [P16], the Score [1] was 4, the “activity considering MIC value/efficacy upon fuel co-incubation” value (Roseomonas mucosa (RM)) was “X” and the “activity considering MIC value/efficacy upon fuel co-incubation” value [2] was “+”. The “activity considering MIC value/efficacy upon fuel co-incubation” value [3] was “X”, the “activity considering MIC value/efficacy upon fuel co-incubation” value (Hormoconis resinae (HR)) was “X” and the “activity considering MIC value/efficacy upon fuel co-incubation” value [4] was “+”. The “activity considering MIC value/efficacy upon fuel co-incubation” value [5] was “X”, the “activity considering MIC value/efficacy upon fuel co-incubation” value [6] was “X” and the “activity considering MIC value/efficacy upon fuel co-incubation” value (Kocuria rosea (KR)) was “+”. The “activity considering MIC value/efficacy upon fuel co-incubation” value [7] was “+”, the MIC [8] was 0.9 µM and the MIC [12] was 0.9 µM. The MIC [9] was 1.9 µM, the MIC [13] was 125 µM and the MIC [10] was 0.9 µM. For the same molecule, the “R t, retention time of peptide” value [11] was 14.075 min.

For `CC[C@H](C)[C@H](N)C(=O)N[C@@H](CC(C)C)C(=O)N[C@@H](CC(C)C)C(=O)N[C@@H](Cc1c[nH]c2ccccc12)C(=O)N[C@@H](CCCCN)C(=O)N[C@@H](Cc1c[nH]c2ccccc12)C(=O)N1CCC[C@H]1C(=O)N[C@@H](Cc1c[nH]c2ccccc12)C(=O)N[C@@H](Cc1c[nH]c2ccccc12)C(=O)N1CCC[C@H]1C(=O)N[C@@H](Cc1c[nH]c2ccccc12)C(=O)N[C@@H](CCCNC(=N)N)C(=O)N[C@@H](CCCNC(=N)N)C(=O)O` [P19], the Score [1] was 3, the “activity considering MIC value/efficacy upon fuel co-incubation” value (Roseomonas mucosa (RM)) was “X” and the “activity considering MIC value/efficacy upon fuel co-incubation” value [2] was “+”. For the same molecule, the “activity considering MIC value/efficacy upon fuel co-incubation” value [3] was “+”, the “activity considering MIC value/efficacy upon fuel co-incubation” value (Hormoconis resinae (HR)) was “X” and the “activity considering MIC value/efficacy upon fuel co-incubation” value [4] was “+”. For the same molecule, the “activity considering MIC value/efficacy upon fuel co-incubation” value [5] was “X”, the “activity considering MIC value/efficacy upon fuel co-incubation” value [6] was “X” and the “activity considering MIC value/efficacy upon fuel co-incubation” value (Kocuria rosea (KR)) was “Fuel x”. For the same molecule, the “activity considering MIC value/efficacy upon fuel co-incubation” value [7] was “+”, the MIC [8] was 1.9 µM and the MIC [12] was 0.9 µM. It also gave an MIC [14] of 0.9 µM, an MIC [9] of 3.9 µM and an MIC [10] of 0.9 µM. For the same molecule, the “R t, retention time of peptide” value [11] was 13.667 min.

In the case of ILPWKFPWWPWRR [P9], the Score [1] is reported as 4, the “activity considering MIC value/efficacy upon fuel co-incubation” value (Roseomonas mucosa (RM)) is reported as “X” and the “activity considering MIC value/efficacy upon fuel co-incubation” value [2] is reported as “+”. For the same molecule, the “activity considering MIC value/efficacy upon fuel co-incubation” value [3] was “+”, the “activity considering MIC value/efficacy upon fuel co-incubation” value (Hormoconis resinae (HR)) was “X” and the “activity considering MIC value/efficacy upon fuel co-incubation” value [4] was “+”. For the same molecule, the “activity considering MIC value/efficacy upon fuel co-incubation” value [5] was “X”, the “activity considering MIC value/efficacy upon fuel co-incubation” value [6] was “+” and the “activity considering MIC value/efficacy upon fuel co-incubation” value (Kocuria rosea (KR)) was “X”. The “activity considering MIC value/efficacy upon fuel co-incubation” value [7] was “X”, the MIC [8] was 3.9 µM and the MIC [15] was 31.25 µM. It also gave an MIC [12] of 0.9 µM, an MIC [14] of 0.9 µM and an MIC [13] of 0.9 µM. The MIC [10] was 7.8 µM and the “R t, retention time of peptide” value [11] was 12.610 min.
